Like-named read-outs stand apart in the source and are kept apart here.
Key:
Na+/K+-ATPase [1] = target: T1, Na+/K+-ATPase (Canis lupus familiaris, UniProt P50997); assay: Na+/K+-ATPase inhibition; assay type: biochemical, dog
T1 construct: enzyme preparation from dog kidney (Sigma); purchased Sigma; host or cells: dog kidney tissue
Experimental: (§1) Anti-prolerafitive IC50 values were determined by MTS assay using an A549 cell line. Na^+/K^+-ATPase inhibition IC50 values were obtained using enzyme preparation from dog kidney (Sigma).

A549 cell line = assay: anti-proliferation MTS assay in A549 cell line; assay type: cell-based; conditions: Homo sapiens
Experimental: as §1

HIF-1α = assay: Western blot using anti-HIF-1α antibody (Example XVI); assay type: cell-based; conditions: 1 μM
A549 Sentinel Line = assay: Sentinel Line reporter assay (beta-gal, FACS); assay type: cell-based, human; conditions: agent alone, 40 hrs, FACS
Experimental: The expression level of beta-galactosidase gene in sentinel lines was determined by using a fluorescent substrate fluorescein di-B-D-Galactopyranside (FDG, Marker Gene Tech, #M0250) introduced into cells by hypotonic shock. Cleavage by beta-galactosidase results in the production of free fluorescein, which is unable to cross the plasma membrane and is trapped inside the beta-gal positive cells. Briefly, the cells to be analyzed are trypsinized, and resuspended in PBS containing 2 mM FDG (diluted from a 10 mM stock prepared in 8:1:1 mixture of water: ethanol: DMSO). The cells were then shocked for 4 minutes at 37° C. and transferred to FACS tubes containing cold 1×PBS on ice. Samples were kept on ice for 30 minutes and analyzed by FACS in FLI channel.
Sentinel Line cells with beta-galactosidase reporter gene were plated at 1×10^5 cells/10 cm dish. […] After 40 hrs, the cells were trypsinized and the expression level of reporter gene was determined by FDG loading.
The reporter activity was measured by FACS analysis.

[2] = test system: Caki-1 human renal cancer xenograft; assay type: in vivo, nude mice; conditions: for % TGI: Caki-1, Day 22; for % TGI / Final Tumor weight Day 22 (Mean): BNC-1 20 mg/ml s.c. pump, Cytoxan 300 or 100 ip; for Final Tumor weight Day 22 (Mean): tumor weight in mg
From the text: (§2) Female nude mice (nu/nu) between 5 and 6 weeks of age weighing approximately 20 g were implanted subcutaneously (s.c.) by trocar with fragments of human tumors harvested from s.c. grown tumors in nude mice hosts. […] Each group contains 8-10 mice, each of which was ear tagged and followed throughout the experiment.
(§3) The administration of drugs or controls began the day the animals were pair-matched (Day 1). […] Mice were weighed and tumor measurements were obtained using calipers twice weekly, starting Day 1. These tumor measurements were converted to mg tumor weight by standard formula, (W^2×L)/2. The experiment is terminated when the control group tumor size reached an average of about 1 gram. Upon termination, the mice were weighed, sacrificed and their tumors excised. The tumors were weighed and the mean tumor weight per group was calculated.

rats = conditions: adult; cited from earlier work
[3] = test system: A549 human non-small-cell-lung carcinoma; assay: A549 human non-small-cell-lung carcinoma xenograft in nude mice; conditions: for % TGI: A549, Day 38; for Final Tumor weight Day 38 (Mean): A549, tumor weight in mg; for Final Tumor weight Day 38 (Mean) / % Weight Change at Day 38: BNC-1 20 mg/ml s.c. pump, Carboplatin 100 mg/kg ip; for % Weight Change at Day 38: A549 xenograft mice; for signs of tumor at the end of the experiment: A549 xenograft, 8 animals per group
From the text: as §2, §3
Carboplatin (qldxl) was injected at 100 mg/kg (Carb).

[4] = test system: Panc-1 human pancreatic xenograft; assay: Panc-1 human pancreatic tumor xenograft in nude mice; assay type: in vivo; conditions: for Final Tumor weight Day 25 (Mean): BNC-1 20 mg/ml s.c. osmotic pump, tumor weight in mg
From the text: as §2, §3
(§4) The control animals received pumps containing vehicle (50% DMSO in DMEM). The mice treated with standard chemotherapy agent received intra-peritoneal injections of Gemcitabine at 40 mg/kg every 3 days for 4 treatments (q3d×4). Each data point represent average tumor weight (n=8) and error bars indicate SEM.
as §4

[5] = cited from earlier work
[6] = test system: panel of 10 cancer cell lines; assay: cytotoxicity against a panel of 10 cancer cell lines; assay type: cell-based; conditions: read-out: median IC50
Na+/K+-ATPase [7] = conditions: Erdmann E 1978; cited from earlier work
[8] = target: Na+/K+-ATPase α peptide isoforms; conditions: read-out: Kd of ouabain for the four α peptide isoforms; almost all mammalian species; cited from earlier work
[9] = test system: several different cancer cell lines; assay: proliferation of cancer cell lines (ouabain IC50); assay type: cell-based; conditions: read-out: IC50 across several different cancer cell lines
[10] = human pharmacokinetics (literature); conditions: species not stated
VEGF = VEGF secretion in tumor cells; assay type: cell-based; conditions: FIG. 8
cats = conditions: cited from earlier work
A549(ROS) Sentinel Line = assay: ROS levels by FACS in A549(ROS) cells; assay type: cell-based, human; conditions: normoxia, 4 hrs
Experimental: Thirty minutes prior to the termination of incubation period, 2,7-dichlorofluorescin diacetate (CFH-DA, […]) was added to the cells and incubated for the last 30 min at 37° C. The ROS levels were determined by FACS analysis.

[11] = Panc-1, Gemcitabine 40 mg/kg q3d×4

## C[C@@H]1OC(OC2C=C3CCC4C5=CC[C@H](c6ccc(=O)oc6)[C@@]5(C)CCC4[C@@]3(C)CC2)[C@H](O)[C@H](O)[C@H]1O (some centres unmarked) [BNC-151]
Na+/K+-ATPase [1]
  IC50: 1380 nM
A549 cell line
  IC50: 260 nM
HIF-1α
  HIF-1α expression: Significant inhibition

## O=C1c2c(O)ccc(O)c2C(=O)c2c(NCCNCCO)ccc(NCCNCCO)c21 [mitoxanthrone, mitoxantrone]
A549 Sentinel Line
  reporter activity in Sentinel Lines: increases in cell death and reporter activity

## O=P1(N(CCCl)CCCl)NCCCO1 (centres unmarked) [Cytoxan]
[2]
  % TGI: 94.48%
[2]; listed as Cytoxan100
  % TGI: 54.70%
[2]; Caki-1
  Final Tumor weight Day 22 (Mean): 93.7
[2]; Caki-1, listed as Cytoxan100
  Final Tumor weight Day 22 (Mean): 769
[2]; Caki-1, Cytoxan 100 mg/kg alone, positive control
  TGI: 92%

## C[C@H]1O[C@@H](O[C@H]2[C@@H](O)C[C@H](O[C@H]3[C@@H](O)C[C@H](O[C@H]4CC[C@@]5(C)[C@H](CC[C@@H]6[C@@H]5CC[C@]5(C)[C@@H](C7=CC(=O)OC7)CC[C@]65O)C4)O[C@@H]3C)O[C@@H]2C)C[C@H](O)[C@@H]1O [Digitoxin]
rats
  LD50 p.o.: 0.1 mg/kg

## N.N.O=C([O-])C1(C(=O)[O-])CCC1.[Pt+2] [Carboplatin]
A549 Sentinel Line
  reporter activity in Sentinel Lines: increases in cell death and reporter activity
[3]
  % TGI: 39.50%
  Final Tumor weight Day 38 (Mean): 509.75
  % Weight Change at Day 38: 16%
  signs of tumor at the end of the experiment: developed tumors of significant sizes

## Nc1ccn([C@@H]2O[C@H](CO)[C@@H](O)C2(F)F)c(=O)n1 [Gemcitabine, gemcitabine]
[4]; [11]
  Final Tumor weight Day 25 (Mean): 701.3
[4]; Panc-1, BNC-4 15 mg/ml s.c. pump, Gemcitabine 40 mg/kg q3d×4
  TGI: 65%
[4]; mouse, in vivo
  % TGI: 37.40%
A549 Sentinel Line
  reporter activity in Sentinel Lines: elevated reporter activity

## CC(=O)OC1C=C2CCC3C4=CC[C@H](c5ccc(=O)oc5)[C@@]4(C)CCC3[C@@]2(C)CC1 (some centres unmarked) [BNC-147]
Na+/K+-ATPase [1]
  IC50: 65000 nM
A549 cell line
  IC50: 11500 nM

## COc1cc2ncnc(Nc3ccc(F)c(Cl)c3)c2cc1OCCCN1CCOCC1 [Iressa]
A549 Sentinel Line
  reporter activity in Sentinel Lines: reduction in reporter activity

## CC(=O)O[C@H]1C(=O)[C@@]2(C)[C@H]([C@H](OC(=O)c3ccccc3)[C@]3(O)C[C@H](OC(=O)[C@H](O)[C@@H](NC(=O)c4ccccc4)c4ccccc4)C(C)=C1C3(C)C)[C@]1(OC(C)=O)CO[C@@H]1C[C@@H]2O [paclitaxel]
A549 Sentinel Line
  reporter activity in Sentinel Lines: increases in cell death and reporter activity

## C[C@H]1O[C@@H](O[C@H]2[C@@H](O)C[C@H](O[C@H]3[C@@H](O)C[C@H](O[C@H]4CC[C@@]5(C)[C@H](CC[C@@H]6[C@@H]5C[C@@H](O)[C@]5(C)[C@@H](C7=CC(=O)OC7)CC[C@]65O)C4)O[C@@H]3C)O[C@@H]2C)C[C@H](O)[C@@H]1O [Digoxin]
[5]; in vivo
  Volume-of-Distribution (VD): 650 L
[6]
  IC50: 37 nM
Na+/K+-ATPase [7]
  order of Na+/K+-ATPase-inhibition: Ouabain<Digoxin<Proscillaridin

## C[C@@H]1O[C@@H](O[C@H]2C[C@@H](O)[C@]3(CO)[C@H]4[C@H](O)C[C@]5(C)[C@@H](C6=CC(=O)OC6)CC[C@]5(O)[C@@H]4CC[C@]3(O)C2)[C@H](O)[C@H](O)[C@H]1O [BNC-1, ouabain]
[8]
  Kd: ≤ 1 nM
[4]; Panc-1, Day 25, BNC-1 20 mg/ml s.c. pump, Gemcitabine 40 mg/kg q3d×4
  % TGI: 82.15%
[4]; [11]
  Final Tumor weight Day 25 (Mean): 200
[9]
  IC50: 15 to 600 nM
[3]
  % TGI: 100.00%
  Final Tumor weight Day 38 (Mean): 0.0
  % Weight Change at Day 38: 21%
  signs of tumor at the end of the experiment: none of the experimental animals showed any signs of tumor
[2]
  % TGI: 81.45%
[2]; Caki-1
  Final Tumor weight Day 22 (Mean): 314.9
[5]; according to the literature
  plasma half-life in human: about 20 hours
  plasma half-life in human, range: 5 to 50 h
[10]
  max. plasma concentration: about 0.03 μg/mL
mice
  toxic serum concentration at day 1 (serum level at MTD): about 50±21 ng/ml
Steady state, xenograft nude mouse
  therapeutic serum concentration required to achieve >60% TGI: about 20±15 ng/ml
[6]
  IC50: 78 nM
VEGF
  secretion of VEGF in tumor cells: directly or indirectly inhibits
Na+/K+-ATPase [7]
  order of Na+/K+-ATPase-inhibition: Ouabain<Digoxin<Proscillaridin
cats
  intravenous toxicity: 0.133 mg/kg
  toxicity on duodenal administration: 5.3 mg/kg
A549(ROS) Sentinel Line
  ROS production: induces ROS production

Source: patent publication US20070105789A1, “Combinatorial chemotherapy treatment using Na+/K+ ATPase inhibitors” (priority 2004, published 2007)
